In patent US20260027068A1, “METHODS OF ADM[…]-KETAMINE” (Perception Neuroscience, Inc., priority 2022, published 2026):

Assay: Respiratory rate (vital signs)
Conditions: 60 mg
Procedure: The Investigational Medicinal Product (IMP) R(−)-ketamine hydrochloride in sterile water for intravenous injection was investigated as an […] treatment of TRD. The International Union of Pure and Applied Chemistry (IUPAC) name is of the IMP is (2R)-2-(2-chlorophenyl)-2-(methylamino)cyclohexan-1-one. Subjects received the solution at either 30 mg or 60 mg dose, or a placebo. The IMP or placebo was administered on Day 1 as a single IV infusion via an electronic infusion pump over 40 minutes. The duration of study participation for each subject was up to 29 days including a screening period, a 3-day in-clinic visit, and 2 follow-up visits. 101 subjects were enrolled in approximately 20 study centers in the EU and the US.
Tympanic or temporal temperature, heart rate, blood pressure (SBP/DBP), respiratory rate, and SpO2 were assessed. Blood pressure and pulse measurements will be assessed with a completely automated device while the subject is supine or semi-supine. Manual techniques will be used only if an automated device is not available. Blood pressure and pulse measurements should be preceded by at least 5 minutes of rest for the subject in a quiet setting without distractions (e.g., television, cell phones). An abnormal blood pressure value at screening may be repeated once after 5 minutes of relaxation to determine the subject's eligibility. Blood pressure was recorded using the same arm and position (supine or semi-supine) throughout the study, where possible. Vital signs (to be taken before blood collection for laboratory tests) consisted of 1 pulse and 3 blood pressure measurements (3 consecutive blood pressure readings will be recorded at intervals of at least 1 minute). The average of the 3 blood pressure readings was recorded in the CRF. A pulse oximeter was used to measure peripheral capillary oxygen saturation (SpO2) continuously from pre-dose until 4-hours post-dose. A pulse oximeter was clipped onto the finger or foot of the subject, and light will be sent through the finger or foot and measured on the other side.
In these tables, baseline value is defined as the last non-missing value prior to study drug administration.

CN[C@@]1(c2ccccc2Cl)CCCCC1=O.Cl [R(−)-ketamine, (2R)-2-(2-chlorophenyl)-2-(methylamino)cyclohexan-1-one]
Respiratory Rate, Max (Day 1, 15 minutes): 18 breaths/minute | Respiratory Rate, Mean (Day 1, 15 minutes): 15.5 breaths/minute | Respiratory Rate, Median (Day 1, 15 minutes): 15.0 breaths/minute | Respiratory Rate, Min (Day 1, 15 minutes): 14 breaths/minute | Respiratory Rate, Max (Day 1, 40 minutes): 23 breaths/minute | Respiratory Rate, Mean (Day 1, 40 minutes): 15.9 breaths/minute | Respiratory Rate, Median (Day 1, 40 minutes): 16.0 breaths/minute | Respiratory Rate, Min (Day 1, 40 minutes): 12 breaths/minute | Respiratory Rate, Max (Day 1, 60 minutes): 16 breaths/minute | Respiratory Rate, Mean (Day 1, 60 minutes): 15.2 breaths/minute | Respiratory Rate, Median (Day 1, 60 minutes): 16.0 breaths/minute | Respiratory Rate, Min (Day 1, 60 minutes): 12 breaths/minute | Respiratory Rate, Max (Day 1, 2 hours): 19 breaths/minute | Respiratory Rate, Mean (Day 1, 2 hours): 15.5 breaths/minute | Respiratory Rate, Median (Day 1, 2 hours): 16.0 breaths/minute | Respiratory Rate, Min (Day 1, 2 hours): 11 breaths/minute | Respiratory Rate, Max (Day 1, 4 hours): 20 breaths/minute | Respiratory Rate, Mean (Day 1, 4 hours): 15.9 breaths/minute | Respiratory Rate, Median (Day 1, 4 hours): 16.0 breaths/minute | Respiratory Rate, Min (Day 1, 4 hours): 12 breaths/minute | Respiratory Rate, Max (Day 1, 6 hours): 20 breaths/minute | Respiratory Rate, Mean (Day 1, 6 hours): 15.7 breaths/minute | Respiratory Rate, Median (Day 1, 6 hours): 16.0 breaths/minute | Respiratory Rate, Min (Day 1, 6 hours): 12 breaths/minute | Respiratory Rate, Max (Day 2 - Discharge): 20 breaths/minute | Respiratory Rate, Mean (Day 2 - Discharge): 15.9 breaths/minute | Respiratory Rate, Median (Day 2 - Discharge): 16.0 breaths/minute | Respiratory Rate, Min (Day 2 - Discharge): 12 breaths/minute | Respiratory Rate, Max (Day 8): 18 breaths/minute | Respiratory Rate, Mean (Day 8): 15.7 breaths/minute | Respiratory Rate, Median (Day 8): 16.0 breaths/minute | Respiratory Rate, Min (Day 8): 12 breaths/minute | Respiratory Rate, Max (Day 15): 20 breaths/minute | Respiratory Rate, Mean (Day 15): 15.8 breaths/minute | Respiratory Rate, Median (Day 15): 16.0 breaths/minute | Respiratory Rate, Min (Day 15): 12 breaths/minute | Respiratory Rate, Change from Baseline, Max (to Day 1, 15 minutes): 2 breaths/minute | Respiratory Rate, Change from Baseline, Mean (to Day 1, 15 minutes): −0.6 breaths/minute | Respiratory Rate, Change from Baseline, Median (to Day 1, 15 minutes): −1.0 breaths/minute | Respiratory Rate, Change from Baseline, Min (to Day 1, 15 minutes): −4 breaths/minute | Respiratory Rate, Change from Baseline, Max (to Day 1, 40 minutes): 4 breaths/minute | Respiratory Rate, Change from Baseline, Mean (to Day 1, 40 minutes): −0.0 breaths/minute | Respiratory Rate, Change from Baseline, Median (to Day 1, 40 minutes): 0.0 breaths/minute | Respiratory Rate, Change from Baseline, Min (to Day 1, 40 minutes): −4 breaths/minute | Respiratory Rate, Change from Baseline, Max (to Day 1, 60 minutes): 1 breaths/minute | Respiratory Rate, Change from Baseline, Mean (to Day 1, 60 minutes): −0.8 breaths/minute | Respiratory Rate, Change from Baseline, Median (to Day 1, 60 minutes): −1.0 breaths/minute | Respiratory Rate, Change from Baseline, Min (to Day 1, 60 minutes): −4 breaths/minute | Respiratory Rate, Change from Baseline, Max (to Day 1, 2 hours): 2 breaths/minute | Respiratory Rate, Change from Baseline, Mean (to Day 1, 2 hours): −0.5 breaths/minute | Respiratory Rate, Change from Baseline, Median (to Day 1, 2 hours): 0.0 breaths/minute | Respiratory Rate, Change from Baseline, Min (to Day 1, 2 hours): −4 breaths/minute | Respiratory Rate, Change from Baseline, Max (to Day 1, 4 hours): 3 breaths/minute | Respiratory Rate, Change from Baseline, Mean (to Day 1, 4 hours): −0.1 breaths/minute | Respiratory Rate, Change from Baseline, Median (to Day 1, 4 hours): 0.0 breaths/minute | Respiratory Rate, Change from Baseline, Min (to Day 1, 4 hours): −4 breaths/minute | Respiratory Rate, Change from Baseline, Max (to Day 1, 6 hours): 6 breaths/minute | Respiratory Rate, Change from Baseline, Mean (to Day 1, 6 hours): −0.2 breaths/minute | Respiratory Rate, Change from Baseline, Median (to Day 1, 6 hours): 0.0 breaths/minute | Respiratory Rate, Change from Baseline, Min (to Day 1, 6 hours): −8 breaths/minute | Respiratory Rate, Change from Baseline, Max (to Day 2 - Discharge): 4 breaths/minute | Respiratory Rate, Change from Baseline, Mean (to Day 2 - Discharge): −0.0 breaths/minute | Respiratory Rate, Change from Baseline, Median (to Day 2 - Discharge): 0.0 breaths/minute | Respiratory Rate, Change from Baseline, Min (to Day 2 - Discharge): −4 breaths/minute | Respiratory Rate, Change from Baseline, Max (to Day 8): 4 breaths/minute | Respiratory Rate, Change from Baseline, Mean (to Day 8): −0.2 breaths/minute | Respiratory Rate, Change from Baseline, Median (to Day 8): 0.0 breaths/minute | Respiratory Rate, Change from Baseline, Min (to Day 8): −6 breaths/minute | Respiratory Rate, Change from Baseline, Max (to Day 15): 6 breaths/minute | Respiratory Rate, Change from Baseline, Mean (to Day 15): −0.1 breaths/minute | Respiratory Rate, Change from Baseline, Median (to Day 15): 0.0 breaths/minute | Respiratory Rate, Change from Baseline, Min (to Day 15): −3 breaths/minute
